Source: US11480578B2, “Method for identifying a biomarker indicative of a reduced drug response using a thermal shift assay” (Pelago Bioscience AB, priority 2014, dated 2022)

System: Methionine aminopeptidase-2
Assay: cell resolved thermal shift assay (FACS sorting, heating, Western blot)
Assay type: cell-based, mouse
Conditions: TNP-470 final concentration 2 μM for one hour; mixed cells FACS sorted; heated 44 to 52° C.; MetAP-2 Western blot; FIG. 3
Procedure: Human cancer cell line K562 and mouse fibrosarcoma cell line T241 with endogenous expression of GFP, were cultured to short-term passages (3-15) in an incubator chamber. The T241 cells were treated with the MetAP-2 inhibitor TNP-470 (final concentration 2 μM) for one hour in the incubator chamber. Following incubation, the cells were washed by repeated centrifugation to pellet cells and re-dissolve in PBS. After this step, the cells were pooled into a PBS buffer. This mix of cells was then subjected to FACS sorting using a MoFlo XDP from Beckman Coulter. Cells were either sorted by their GFP fluorescence (T241) or by the lack of fluorescence (K562). The sorted cells were then aliquoted in 8 tube PCR strips and subjected to heating to temperatures ranging from 44 to 52° C. with two degree increments. After heating, the cells were snap frozen in N2 (I) and freeze thawed. The resulting cell debris together with precipitated protein was pelleted by centrifugation at 20000*g for 20 minutes. The supernatants, containing various amount of the target protein (MetAP-2) were subjected to standard SDS-Page and Western blot analysis using a specific primary MetAP-2 antibody (Santa Cruz Biotechnology SC-365637) at 1:400 dilution in non-fat dietary milk.

Structure (SMILES): CO[C@@H]1[C@H](OC(=O)NC(=O)CCl)CC[C@]2(CO2)[C@H]1[C@@]1(C)O[C@@H]1CC=C(C)C [TNP-470]
- stabilisation of the target protein Methionine aminopeptidase-2 (dark band shows presence of heat stabilised protein): stabilisation
